Experimental data published in patent US20070275936A1, “Formulations and Treatment Methods” (priority 1998, published 2007).

Tested on: P. falciparum
Experiment: Intravenous BrEA malaria patient trial
Type: in vivo
Conditions: day 14, two patients
Procedure: Response to drug treatment was graded as per World Health Organization criteria (WHO 1973) in infected patients. Evaluation of therapeutic response was determined using the parasitic and fever clearance times. […]
Microscopy. […] Parasitemia was quantified in thin films by counting 2000 red blood cells in clear contiguous fields and finding the proportion that was parasitized. In thick films, parasitemia was quantified by counting parasites against leukocytes. […] Approximately 5000 erythrocytes were counted in clear contiguous fields 24 and 48 h after incubation of blood obtained at each time point and graded for maturity into tiny rings, small rings, large rings, pigmented trophozoites and schizonts. […]
Calculation of Parameters. […] Parasitemia quantification and clinical examination were done once every 6 hours for the first 72 hours, followed by daily assessment of the parameters up to day 7 (168 hrs) and thereafter on day 14.
Blood films were Giemsa-stained and parasitemia quantification was done in thick films by counting 2000 parasites against leukocytes, and the thin films by finding the proportion of infected red blood cells. […]

How did the parasite clearance rate turn out when C[C@]12CC[C@H](O)C[C@@H]1CC[C@@H]1[C@@H]2CC[C@]2(C)C(=O)[C@H](Br)C[C@@H]12 [BrEA, 16α-bromo-3β-hydroxy-5α-androstane-17-one] was run?
Its parasite clearance rate is 100%.
